Where “and” joins values, the source holds several entries; their conditions need not be identical. Equal values may be shown once. Read-outs that look alike come from different tables or passages of the source.
Experiments:
cells (nuclei count) = conditions: for Toxicity Data: Average, Mean: average of Exp 1-3 (SMW475, SMW477, SMW478), n 9; for Relative cell count to DMSO controls, Average 1 μM / Relative cell count to DMSO controls, Average 5 μM / Relative cell count to DMSO controls, Average 10 μM / Relative cell count to DMSO controls, Average 25 μM / Relative cell count to DMSO controls, Average 50 μM: toxicity data, 100=DMSO control; for Relative cell count to DMSO controls, Average (for correlation analysis): average value over the 5 tested concentrations (1 to 50 uM)
SARS2 = assay type: cell-based, SARS-CoV-2; conditions: for Infection Data: Percentage Infection Relative to Appropriate DMSO Control: avg background subtraction, replicate wells; for Infection Data: Average, Mean: average of Exp 1-3 (SMW475, SMW477, SMW478), n 9; for Percentage Inhibition Average 1 μM / Screening data (Relative infection to DMSO controls) Average 1 μM: SARS2, 1 μM; for Screening data (Relative infection to DMSO controls) Average 1 μM / Screening data (Relative infection to DMSO controls) Average 5 μM / Screening data (Relative infection to DMSO controls) Average 10 μM / Screening data (Relative infection to DMSO controls) Average 25 μM / Screening data (Relative infection to DMSO controls) Average 50 μM / Average (relative infection to DMSO over the 5 tested concentrations): 100=DMSO control; for Percentage Inhibition Average 5 μM / Screening data (Relative infection to DMSO controls) Average 5 μM: SARS2, 5 μM; for Percentage Inhibition Average 10 μM / Screening data (Relative infection to DMSO controls) Average 10 μM: SARS2, 10 μM; for Percentage Inhibition Average 25 μM / Screening data (Relative infection to DMSO controls) Average 25 μM: SARS2, 25 μM; for Percentage Inhibition Average 50 μM / Screening data (Relative infection to DMSO controls) Average 50 μM: SARS2, 50 μM; for Average (relative infection to DMSO over the 5 tested concentrations): SARS2, average over 1 to 50 uM

With `Cc1csc(CN(CCN(C)C)Cc2ccco2)c1` [SILCS17] the “Toxicity Data: Average, Mean” value (cells (nuclei count); 1 uM) was 96.29%, the “Relative cell count to DMSO controls, Average 1 μM” value (cells (nuclei count)) was 96.29 and the “Toxicity Data: Average, Mean” value (cells (nuclei count); 5 uM) was 89.17%. For the same compound, the “Relative cell count to DMSO controls, Average 5 μM” value (cells (nuclei count)) was 89.17, the “Toxicity Data: Average, Mean” value (cells (nuclei count); 10 uM) was 88.87% and the “Relative cell count to DMSO controls, Average 10 μM” value (cells (nuclei count)) was 88.87. For the same compound, the “Toxicity Data: Average, Mean” value (cells (nuclei count); 25 uM) was 75.47%, the “Relative cell count to DMSO controls, Average 25 μM” value (cells (nuclei count)) was 75.47 and the “Toxicity Data: Average, Mean” value (cells (nuclei count); 50 uM) was 53.52%. The “Relative cell count to DMSO controls, Average 50 μM” value (cells (nuclei count)) was 53.52, the “Relative cell count to DMSO controls, Average (for correlation analysis)” value (cells (nuclei count)) was 80.66 and the “Infection Data: Percentage Infection Relative to Appropriate DMSO Control” value (SARS2; 1 uM, Exp 1 (SMW475)) was 78.55% and 85.49% and 89.26%. The “Infection Data: Percentage Infection Relative to Appropriate DMSO Control” value (SARS2; 1 uM, Exp 2 (SMW477)) was 101.46% and 156.03% and 155.63%, the “Infection Data: Percentage Infection Relative to Appropriate DMSO Control” value (SARS2; 1 uM, Exp 3 (SMW478)) was 90.81% and 93.25% and 105.34% and the “Infection Data: Average, Mean” value (SARS2; 1 uM) was 106.20%. The “Infection Data: Percentage Infection Relative to Appropriate DMSO Control” value (SARS2; 5 uM, Exp 1 (SMW475)) was 86.61% and 84.44% and 77.45%, the “Infection Data: Percentage Infection Relative to Appropriate DMSO Control” value (SARS2; 5 uM, Exp 2 (SMW477)) was 142.87% and 172.05% and 157.06% and the “Infection Data: Percentage Infection Relative to Appropriate DMSO Control” value (SARS2; 5 uM, Exp 3 (SMW478)) was 97.85% and 101.86% and 101.30%. The “Infection Data: Average, Mean” value (SARS2; 5 uM) was 113.50%, the “Infection Data: Percentage Infection Relative to Appropriate DMSO Control” value (SARS2; 10 uM, Exp 1 (SMW475)) was 75.56% and 86.80% and 108.19% and the “Infection Data: Percentage Infection Relative to Appropriate DMSO Control” value (SARS2; 10 uM, Exp 2 (SMW477)) was 130.54% and 160.59% and 172.84%. For the same compound, the “Infection Data: Percentage Infection Relative to Appropriate DMSO Control” value (SARS2; 10 uM, Exp 3 (SMW478)) was 90.38% and 97.98% and 103.28%, the “Infection Data: Average, Mean” value (SARS2; 10 uM) was 114.02% and the “Infection Data: Percentage Infection Relative to Appropriate DMSO Control” value (SARS2; 25 uM, Exp 1 (SMW475)) was 41.54% and 68.32% and 68.68%. The “Infection Data: Percentage Infection Relative to Appropriate DMSO Control” value (SARS2; 25 uM, Exp 2 (SMW477)) was 38.35% and 67.19% and 82.12%, the “Infection Data: Percentage Infection Relative to Appropriate DMSO Control” value (SARS2; 25 uM, Exp 3 (SMW478)) was 68.44% and 109.27% and 278.92% and the “Infection Data: Average, Mean” value (SARS2; 25 uM) was 91.43%. The “Infection Data: Percentage Infection Relative to Appropriate DMSO Control” value (SARS2; 50 uM, Exp 1 (SMW475)) was 15.74% and 49.90% and 30.92%, the “Infection Data: Percentage Infection Relative to Appropriate DMSO Control” value (SARS2; 50 uM, Exp 2 (SMW477)) was 11.74% and 25.42% and 30.96% and the “Infection Data: Percentage Infection Relative to Appropriate DMSO Control” value (SARS2; 50 uM, Exp 3 (SMW478)) was 20.44% and 62.60% and 81.13%. For the same compound, the “Infection Data: Average, Mean” value (SARS2; 50 uM) was 36.54%, the “Percentage Inhibition Average 1 μM” value (SARS2) was −6.20% and the “Screening data (Relative infection to DMSO controls) Average 1 μM” value (SARS2) was 106.20. For the same compound, the “Percentage Inhibition Average 5 μM” value (SARS2) was −13.50%, the “Screening data (Relative infection to DMSO controls) Average 5 μM” value (SARS2) was 113.50 and the “Percentage Inhibition Average 10 μM” value (SARS2) was −14.02%. For the same compound, the “Screening data (Relative infection to DMSO controls) Average 10 μM” value (SARS2) was 114.02, the “Percentage Inhibition Average 25 μM” value (SARS2) was 8.57% and the “Screening data (Relative infection to DMSO controls) Average 25 μM” value (SARS2) was 91.43. For the same compound, the “Percentage Inhibition Average 50 μM” value (SARS2) was 63.46%, the “Screening data (Relative infection to DMSO controls) Average 50 μM” value (SARS2) was 36.54 and the “Average (relative infection to DMSO over the 5 tested concentrations)” value (SARS2) was 92.34.
With `COc1ccc(C2NC(=O)NC(C)=C2C(=O)NCC2CCCCC2)cc1OC` (centres unmarked) [SILCS63] the “Relative cell count to DMSO controls, Average 1 μM” value (cells (nuclei count)) was 106.9, the “Relative cell count to DMSO controls, Average 5 μM” value (cells (nuclei count)) was 114.55 and the “Relative cell count to DMSO controls, Average 10 μM” value (cells (nuclei count)) was 101.91. The “Relative cell count to DMSO controls, Average 25 μM” value (cells (nuclei count)) was 91.46, the “Relative cell count to DMSO controls, Average 50 μM” value (cells (nuclei count)) was 78.57 and the “Relative cell count to DMSO controls, Average (for correlation analysis)” value (cells (nuclei count)) was 98.68. The “Percentage Inhibition Average 1 μM” value (SARS2) was 19.08%, the “Screening data (Relative infection to DMSO controls) Average 1 μM” value (SARS2) was 80.92 and the “Percentage Inhibition Average 5 μM” value (SARS2) was 53.97%. The “Screening data (Relative infection to DMSO controls) Average 5 μM” value (SARS2) was 46.03, the “Percentage Inhibition Average 10 μM” value (SARS2) was 7.81% and the “Screening data (Relative infection to DMSO controls) Average 10 μM” value (SARS2) was 92.19. For the same compound, the “Percentage Inhibition Average 25 μM” value (SARS2) was −18.04%, the “Screening data (Relative infection to DMSO controls) Average 25 μM” value (SARS2) was 118.04 and the “Percentage Inhibition Average 50 μM” value (SARS2) was −21.48%. The “Screening data (Relative infection to DMSO controls) Average 50 μM” value (SARS2) was 121.48 and the “Average (relative infection to DMSO over the 5 tested concentrations)” value (SARS2) was 91.73.
